The test system of series [1] is SARS-CoV-2. Description: microbe, parasite or virus in culture. The series is classed as cell-based. The conditions noted are these: Vero E6 cells, MOI 0.04, three days, XTT, read-out: SARS-CoV-2 CPE, EC50. A general note: Tetrazolium dyes change colour on reduction, which living cells bring about.
Series [2] has as its system SARS-CoV-2. Description: microbe, parasite or virus in culture. The conditions noted are these: Vero E6 cells, read-out: SARS-CoV-2 IFA, EC50. The series is classed as cell-based.
Series [3] concerns the target T1, Human recombinant cathepsin B (exopeptidase activity) (Homo sapiens, UniProt P07858).
T1 construct: The Preparation of Catalytically Active Human Cathepsin B from Its Precursor Expressed in Escherichia coli; made in house; host or cells: Escherichia coli
Nature of the series: Cathepsin B exopeptidase inhibition assay. Type of series: biochemical.

Series [4] addresses Human recombinant cathepsin L (Homo sapiens, UniProt P07711). Nature of the series: Cathepsin L inhibition assay. Type of series: biochemical.
A further series has as its target 3CLPro (Severe acute respiratory syndrome coronavirus 2, UniProt P0DTD1). Description: 3CLPro FRET-based inhibition assay. The series is classed as biochemical, SARS-CoV-2. The conditions noted are these: for IC50: FRET, 600 nM 3CLPro, 250 nM substrate; for inhibition at 100 µM: read-out: 3CLPro inhibition.
A further series in a line: in vitro. The conditions noted are these: African green monkey.
In series [5] the test system is SARS-CoV-2. Nature of the series: Viral RNA reduction assay (ddPCR) in Vero E6 cells, MOI 0.01. The conditions noted are these: for EC50: read-out: SARS-CoV-2 RNA Reduction EC50; for Therapeutic Index CC50/EC50: calculated from RNA reduction EC50 values.
On the set-up of series [6]: method as in PMID 32625627. The conditions noted are these: cited from earlier work.
The subject of series [7] is Bacillus subtilis ATCC 6633. Nature of the series: Broth microdilution MIC. The conditions noted are these: ATCC6633, 24 h.
The subject of series [8] is Staphylococcus aureus MSSA ATCC 29213. Description: Broth microdilution MIC. A general note: Dilution methods test growth across graded concentrations, often in twofold steps.
The subject of series [9] is Staphylococcus aureus MRSA ATCC 33591. Nature of the series: Broth microdilution MIC.
Series [10] relates to Staphylococcus epidermidis ATCC 35984 biofilm. Description: Broth microdilution MIC.
Series [11] concerns Staphylococcus epidermidis mecA. Description: Broth microdilution MIC. The conditions noted are these: 24 h.
The test system of series [12] is Enterococcus faecalis ATCC 29212. Nature of the series: Broth microdilution MIC. The conditions noted are these: ATCC29212, 24 h.
Series [13] has as its system Enterococcus faecalis 15376 VanA. Nature of the series: Broth microdilution MIC. The conditions noted are these: 24 h.
For series [14], the system named is Enterococcus faecalis ATCC 51299 VanB. Description: Broth microdilution MIC.
The next series concerns Vero E6 cells. The conditions noted are these: dilutions from 100 µM.
A further series deals with SARS-CoV-1. The conditions noted are these: read-out: IC50 for blocking SARS-CoV-1 entry; cited from earlier work.
For series [15], the system named is SARS-CoV-2. The conditions noted are these: read-out: IC50 for blocking SARS-CoV-2 entry; cited from earlier work.
Series [16] deals with SARS-CoV-2.
The mark [17] stands for this setting: Severe acute respiratory syndrome coronavirus 2, Vero C1008, 72 h.
Setting [18] is: pH 5.5, substrate Z-Phe-Arg-AMC; read-out: Cathepsin L IC50.
The mark [19] stands for this setting: Severe acute respiratory syndrome coronavirus 2, Vero C1008, 48 h.
Setting [20] is: Staphylococcus epidermidis, ATCC35984, 24 h.
Setting [21] is: Enterococcus faecalis, 15376VANA.
The mark [22] stands for this setting: Enterococcus faecalis, ATCC51299, 24 h.

Results on 5 compounds are retold here after publication PMC8619593 (Pharmaceuticals, 2021).

≈ marks a conversion by molar mass, not a printed value. Where “and” joins values, the source holds several entries; their conditions need not be identical. Identical values can stand only once. Entries after “also recorded” stand apart in the source; their conditions may differ. Like-named read-outs stand apart in the source and are kept apart here. Some results are limits rather than exact numbers.

Chain of Human recombinant cathepsin L (P07711 114-333): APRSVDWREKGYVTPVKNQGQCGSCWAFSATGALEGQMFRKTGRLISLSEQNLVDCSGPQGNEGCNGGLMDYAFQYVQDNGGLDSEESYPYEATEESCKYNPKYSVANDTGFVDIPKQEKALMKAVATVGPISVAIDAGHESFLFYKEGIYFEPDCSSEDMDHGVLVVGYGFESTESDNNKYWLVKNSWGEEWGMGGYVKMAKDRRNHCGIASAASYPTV

Usually EC50 stands for the concentration needed to bring the measured effect to its halfway point. What is called IC50 is the concentration that gives 50% inhibition. The melting point is the temperature of the solid-liquid transition. Compound `CC1=C(/C=C/C(C)=C/C=C/C(C)=C/C=C/C=C(C)/C=C/C=C(\C)C(=O)O)C(C)(C)CCC1` [Compound 1c, β-apo-8′-carotenoic acid] yielded a melting point of 194 to 195 °C. Also, the 50% effective concentration (EC50) in the series with SARS-CoV-2 [1] (setting [17]) is 14 ± 2.2 µM. Further, the half-maximal effective concentration (EC50) with SARS-CoV-2 [2] (Severe acute respiratory syndrome coronavirus 2, Vero C1008, MOI 0.04, * measurement from 50 µM) turned out to be 31 ± 7.9 µM. Also, in series [3] (read-out: Exopeptidase Cathepsin B IC50), the concentration for half-maximal inhibition (IC50) turned out to be 21.3 ± 1.2 µM. Further, in series [4] (setting [18]), the IC50 stood at 76 ± 1.74 µM. On 3CLPro, this compound showed an IC50 of 73 ± 7.1 µM. Besides, the CC50 at 3 days in the series “in vitro” is above 100 µM. In the series on SARS-CoV-2 [5] (setting [19]), the concentration for a half-maximal effect (EC50) is 15 ± 2 µM. For the same compound, the “Therapeutic Index CC50/EC50” value in the series with SARS-CoV-2 [5] is on record as above 6.7.
As usually defined, the inhibition is the change of the read-out against control, counted positive when it falls. As to `COC(=O)/C=C/C(C)=C\C=C\C(C)=C\C=C\C=C(C)\C=C\C=C(C)\C=C\C(=O)O` [Compound 1a, Bixin, reference compound], the half-maximal effective concentration (EC50) in the series on SARS-CoV-2 [1] (setting [17]) was determined as 14 ± 3.5 µM; in the series with SARS-CoV-2 [2] (Severe acute respiratory syndrome coronavirus 2, Vero C1008, 72 h, MOI 0.04, three days, dilutions from 100 µM), 28 ± 8.8 µM; with SARS-CoV-2 [5] (setting [19]), 5.9 ± 1.7 µM. The IC50 in series [3] (pH 5.0, substrate Abz-Gly-Ile-Val-Arg-Ala-Lys(Dnp)-OH; read-out: Exopeptidase Cathepsin B IC50) amounted to 14.6 ± 1.71 µM; in series [4] (setting [18]), 41.9 ± 1.12 µM. In addition, the inhibition at 100 µM on 3CLPro was determined as 56%. Also, the acceptable daily intake in series [6] was 6 mg/kg body weight. In addition, in “in vitro”, the CC50 was above 100 µM. Further, the MIC in series [7] is 512 µg/mL (≈ 1300 µM); in series [8] (Staphylococcus aureus, 24 h) it was 512 µg/mL (≈ 1300 µM); in series [9] (Staphylococcus aureus, 24 h), 512 µg/mL (≈ 1300 µM); in series [10] (setting [20]) it was 512 µg/mL (≈ 1300 µM); in series [11] (Staphylococcus epidermidis) it was 512 µg/mL (≈ 1300 µM); in series [12], 512 µg/mL (≈ 1300 µM). Further, the MIC in series [13] (setting [21]) and in series [14] (setting [22]) was 512 µg/mL (≈ 1300 µM) each time. In addition, the “Therapeutic Index CC50/EC50” value in the series on SARS-CoV-2 [5] was above 17.
Compound `COC(=O)/C(C)=C/C=C/C(C)=C/C=C/C=C(C)/C=C/C=C(\C)C(=O)O` [Compound 1b, crocetin monomethyl ester] came in with a melting point of 204 to 205 °C. On 3CLPro, the inhibition at 100 µM is 24%. The “SARS-CoV-2 RNA Reduction, activity at 50 µM” value in the series on SARS-CoV-2 [5] (Vero E6 cells, MOI 0.01, tested at 50 µM) is reported as “did not show antiviral activity; also recorded: not active at 50 µM”.
Consider “teicoplanin [Compound 3, reference compound]”, for which the EC50 with SARS-CoV-2 [1] was 15.7 µM and 16 µM; in the series on SARS-CoV-2 [2] (MOI 0.04, three days, dilutions from 100 µM), 18 ± 5.4 µM; with SARS-CoV-2 [5] (Vero E6 cells, MOI 0.01, 48 h, ddPCR of supernatant), 5.6 ± 1.3 µM. In addition, the “Exopeptidase Cathepsin B relative inhibition” value in series [3] (at 50 μM) is given as 0.45% at 50 μM. Further, the entries for the “Cathepsin L relative inhibition” value in series [4] (at 50 μM) and in [4] (at 50 μM; listed as teicoplanin) were 5.07% at 50 μM and 5%, respectively. Besides, the 3CLPro inhibition at 3CLPro (at 200 μM) was 13% at 200 μM. This compound also came in with a CC50 in the series with Vero E6 cells above 100 µM. In addition, the IC50 was 3.76 µM in the series with SARS-CoV-1 and 1660 nM with SARS-CoV-2 [15]. The MIC in series [7] stood at 0.5 µg/mL; in [8] (Staphylococcus aureus MSSA ATCC 29213, 24 h), 0.5 µg/mL; in series [9] (Staphylococcus aureus MRSA ATCC 33591, 24 h), 0.5 µg/mL; in [10] (Staphylococcus epidermidis ATCC 35984 biofilm, 24 h), 2 µg/mL; in series [11] (Staphylococcus epidermidis mecA) it was 16 µg/mL; in series [12], 2 µg/mL. In addition, the MIC in [13] (Enterococcus faecalis 15376 VanA) amounted to 256 µg/mL; in series [14] (Enterococcus faecalis ATCC 51299 VanB, 24 h), 4 µg/mL.
As for `CC(=O)NC1C(OC2c3ccc(c(Cl)c3)Oc3cc4cc(c3O)Oc3ccc(cc3Cl)CC3NC(=O)C(NC(=O)C(C)=CC=CC(C)=CC=CC=C(C)C=CC=C(C)C=CC5=C(C)CCCC5(C)C)c5ccc(O)c(c5)Oc5cc(O)cc(c5)C(NC3=O)C(=O)NC4C(=O)NC3C(=O)NC2C(=O)NC(C(=O)O)c2cc(O)cc(O)c2-c2cc3ccc2O)OC(CO)C(O)C1O` (stereo not drawn) [Compound 5c], the half-inhibitory concentration (IC50) is 56.5 ± 1.06 µM in series [3] (read-out: Exopeptidase Cathepsin B IC50; pH 5.0, substrate Abz-Gly-Ile-Val-Arg-Ala-Lys(Dnp)-OH); 47.1 ± 1.05 µM in [4] (read-out: Cathepsin L IC50; pH 5.5, substrate Z-Phe-Arg-AMC); 34.5 ± 12.5 µM against 3CLPro. For the same compound, in the series on SARS-CoV-2 [16], the “Therapeutic Index CC50/EC50” value is recorded as above 22.7. In addition, in the series on Vero E6 cells, the CC50 is above 100 µM. Besides, the MIC is 16 µg/mL (≈ 8.81 µM) in series [7]; 8 µg/mL (≈ 4.4 µM) in series [8] (Staphylococcus aureus, 24 h); 1 µg/mL (≈ 0.55 µM) in series [9] (Staphylococcus aureus, 24 h); 0.5 µg/mL (≈ 0.275 µM) in series [10] (setting [20]); 0.5 µg/mL (≈ 0.275 µM) in series [11] (Staphylococcus epidermidis); 4 µg/mL (≈ 2.2 µM) in series [12]. Further, the MIC in [13] (setting [21]) and in series [14] (setting [22]) was 8 µg/mL (≈ 4.4 µM) in each case.
